Experimental data as given in patent US8778959B2, “AZA-bridged ring-fused indoles and indolines” (AbbVie Inc., priority 2009, dated 2014).
pEC50: −log10 of the molar value.

How the values were obtained:
[1] = test system: primary postnatal (P0) cortical cells; experiment: Neurite Outgrowth Assay (Aβ1-42-treated cortical cells); assay type: cell-based, rat; details: n = 1; for % Attenuation Effect of 5 μM Aβ 1-42: 5 μM Aβ1-42; for Emax: Rattus norvegicus, maximum response relative to 300 nM dimebolin, at the concentration given, read-out: Maximum Effect (of % 300 nM Dimebolin) at Concentration; for Concentration (nM) of Maximum Effect: test compound concentration at which the maximum response was noted
Description: In addition to PC12 cells, other cellular model systems may also be used. Rat cortical cells can be cultured and prepared for high content microscopy analysis as previously described (Hu, M.; Schurdak, M. E.; et al. High content screen microscopy analysis of Aβ1-42-induced neurite outgrowth reduction in rat primary cortical neurons: Neuroprotective effects of α7 neuronal nicotinic acetylcholine receptor ligands. Brain Res. 2007, 1151, 227-235). Briefly, cortical cell cultures are plated at density of 5×10^5 cells/mL onto poly-D-lysine coated 96-well plates and maintained in a cell incubator at 37° C. with 5% CO2. Experiments are performed using 6-7 day-old cortical cell cultures by treating with test compounds. In some experiments, the effect of test compounds on reversing Aβ toxicity can also be measured (Hu, M.; Schurdak, M. E.; et al. High content screen microscopy analysis of Aβ1-42-induced neurite outgrowth reduction in rat primary cortical neurons: Neuroprotective effects of α7 neuronal nicotinic acetylcholine receptor ligands. Brain Res. 2007, 1151, 227-235). For assessment of neuroprotective effects, cells are first pretreated with test compounds for about 5 hours. Medium is then replaced with the medium containing freshly prepared about 5 μM Aβ1-42 peptide in the absence or presence of the test compounds for 3 days. The untreated group contains the same percentage of vehicle (DMSO) as in the treatment groups. Cells are fixed with approximately 4% paraformaldehyde containing 0.5% Hoechst 33342 for about 15 minutes, followed by three washes using PBS (pH 7.4) and blocked with 10% donkey serum in PBS for 1 hour at room temperature. The cells are then incubated overnight at about 4° C. with mouse anti-tubulin monoclonal antibody (1:100) for staining neurons and rabbit anti-GFAP (1:1000) for staining glia. In the next day, cells are incubated with FITC-labeled anti-mouse and TRITC-labeled anti-rabbit antibodies (1:1000) for about 1 hour at room temperature. After fixing and staining the cells, nuclei (360/400 nm excitation and 465/300 nm emission filters), neuron (475/350 nm excitation and 535/400 nm emission filters) and glial cell (535 nm excitation and 610 nm emission filters) images are collected using the ImageExpress Micro automatic fluorescent microscopy system (Molecular Devices, Sunnyvale, Calif.) employing a Nikon 10× Plan Fluor objective and Cool Snap HQ CCD camera. The Neurite Outgrowth module in the MetaMorph Imaging software can be used to automatically count total cell number, number of neuron cells, and the extent of neurite outgrowth.
The neurite outgrowth observed for untreated cells is set to 100% response. Treatment of cells with compounds prior to and concomitantly with Aβ1-42 gave a neuroprotective effect with neurite outgrowth maintained or enhanced relative to untreated cells.

[2] = test system: SK-N-SH human neuroblastoma cells; experiment: Serum Deprivation/JC-1 Mitochondrial Membrane Potential (MMP) Assay; assay type: cell-based; details: Homo sapiens, SK-N-SH, 18 h; for Emax: percent maximal intensity in JC-1 ratio normalized to peak value for 10 μM dimebolin, read-out: JC-1 max %; for pEC50: serum deprivation ~18 hours, JC-1 ratio normalized to peak value for 10 μM dimebolin, single curve fit to mean of n=2-3
Description: SK-N-SH human neuroblastoma cells obtained from American Type Culture Collection (Rockville, Md.) were maintained in the log phase of growth in Minimal Essential Media (MEM), 10% heat inactivated fetal calf serum and 100 units/mL antibiotic-antimycotic (AA). Cells were cultured and maintained in a humidified incubator at 37° C. under 5% CO2 and 95% air. Cells were trypsinized (0.25%) and subcultured every 3 days and used from 15-18 passages. All cell culture supplies were obtained from Invitrogen (Carlsbad, Calif.).
SK-N-SH cells were plated 2-3 days in advance at a concentration of 50,000 cells/well onto collagen coated black-walled 96 well plates (Becton-Dickinson, Bedford, Mass.) in a total volume of 200 μL. On day of experimental treatment, the media containing serum was aspirated from each well and rinsed once with MEM/1% AA without serum. The cells then were incubated overnight in 100 μL of MEM/1% AA (no serum) with and without dimebolin or novel chemical entities overnight for ˜18 hours. The following day, JC-1 dye (5,5′,6,6′-tetrachloro-1,1′,3,3′-tetraethylbenzimidazolcarbocyanide) was diluted 1:10 into MEM media according to the JC-1 Mitochondrial Membrane Potential Assay Kit: (Cayman Chemical Company, Ann Arbor, Mich.) and then 10 μL of the JC-1 dye solution was added to each well. The plates were centrifuged for 5 minutes at 400×g at room temperature followed by 35 minute incubation at 37° C. The plates were washed twice with 200 μL of provided Assay Buffer followed an addition of 100 μL of Assay Buffer to each well. The plates were read with an excitation and emission of 560 nm and 595 nM for red fluorescence and with an excitation and emission of […] and 535 nM for green fluorescence to determine the final JC-1 value taking the red to green fluorescence ratio. This assay is based on change in mitochondrial membrane potential (MMP) using this lipophilic cationic dye, JC-1, by monitoring the changes in the ratio of red to green fluorescence as the MMP depolarizes. This change in MMP reflects the health of the cell with healthy, viable cells have a high JC-1 ratio and high MMP whereas apoptotic, unhealthy cells have a low JC-1 ratio or low MMP.
For the ability of compounds to reverse the stress due to serum deprivation and increase the JC-1 ratio, the percent maximal intensity in JC-1 ratio was normalized to that induced by the peak value for 10 μM dimebolin and plotted against the compound concentration to calculate EC50 values and to control for plate-to-plate variability. Concentration-response data were analyzed using GraphPad Prism (San Diego, Calif.); the EC50 values were derived from a single curve fit to the mean data of n=2-3, in duplicates.
All compounds were dissolved in dimethyl sulfoxide at 10 mM stock solutions and tested at a concentration that the dimethyl sulfoxide levels never exceeded 1%.

[3] = test system: primary rat cortical neurons; details: comparable to that evoked by BDNF; cited from earlier work
[4] = test system: patients with mild-to-moderate Alzheimer's disease; details: cited from earlier work
[5] = test system: mouse model of multiple sclerosis; details: in vivo administration; cited from earlier work

SMILES | % Attenuation Effect of 5 μM Aβ 1-42 [1] | Emax [1] | Concentration (nM) of Maximum Effect [1] | Emax [2] | pEC50 [2] | Neurite outgrowth [3] | Clinical course of disease (ADAS-Cog, improvement over baseline) ([4]; 20 mg three times a day (60 mg/day)) | Most frequent adverse event ([4]; reported clinical studies) | Development of the disease [5]
c1ccc(COc2cccc3c4c([nH]c23)C[C@H]2CCC[C@@H]4N2)cc1 (stereo in doubt) [Example 9, (7R*,11S*)-4-(benzyloxy)-6,7,8,9,10,11-hexahydro-5H-7,11-epiminocycloocta[b]indole] | 45 (n = 1) % | 115% | 0.03 nM | 130% | 5.22 |  |  |  | 
Cc1ccc2c(c1)c1c(n2CCc2ccc(C)nc2)CCN(C)C1 [dimebolin, 2,3,4,5-tetrahydro-2,8-dimethyl-5-[2-(6-methyl-3-pyridinyl)ethyl]-1H-pyrido[4,3-b]indole] |  |  |  |  |  | increase neurite outgrowth | significant improvement | dry mouth | 
O=C1C=C(c2ccccc2)C(=O)N1c1cccc(Cl)c1 [1-(3-chlorophenyl)-3-phenyl-pyrrole-2,5-dione] |  |  |  |  |  |  |  |  | significantly prevented the development of the disease
Cc1ccc(/C=C/c2cccc3c4c([nH]c23)CC2CCC4N2C)cn1 (centres unmarked) [Example 1, 11-methyl-4-[(E)-2-(6-methylpyridin-3-yl)vinyl]-5,6,7,8,9,10-hexahydro-7,10-epiminocyclohepta[b]indole] | 27 (n = 1) % | 103% | 0.3 nM | 214% | 5.50 |  |  |  | 
